Laboratory results as given in ChEMBL document CHEMBL2074231, “Influence of molecular structure on substrate binding to the human organic cation transporter, hOCT1” (Mol Pharmacol, 2003).

Molecular target: T1, Solute carrier family 22 member 1 (Homo sapiens, UniProt O15245)
T1 sequence (O15245 whole entry): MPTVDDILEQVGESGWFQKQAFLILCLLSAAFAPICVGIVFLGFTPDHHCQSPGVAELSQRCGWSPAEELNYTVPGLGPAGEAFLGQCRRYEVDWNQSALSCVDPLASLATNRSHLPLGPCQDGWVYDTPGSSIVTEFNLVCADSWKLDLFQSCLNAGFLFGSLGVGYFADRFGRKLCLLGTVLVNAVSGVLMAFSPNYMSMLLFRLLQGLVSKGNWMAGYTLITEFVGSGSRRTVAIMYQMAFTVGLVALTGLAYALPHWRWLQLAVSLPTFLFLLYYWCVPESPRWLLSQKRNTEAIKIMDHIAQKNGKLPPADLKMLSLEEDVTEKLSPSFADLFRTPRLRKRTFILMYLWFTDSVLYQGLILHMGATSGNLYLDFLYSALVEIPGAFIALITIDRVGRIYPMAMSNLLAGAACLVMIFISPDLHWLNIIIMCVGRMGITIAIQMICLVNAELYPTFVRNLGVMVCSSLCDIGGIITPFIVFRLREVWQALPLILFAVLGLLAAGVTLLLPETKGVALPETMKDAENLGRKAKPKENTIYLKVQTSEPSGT
Assay: TP_TRANSPORTER: inhibition of TEA uptake in OCT1-expressing HeLa cells

CN(C)CCCN1c2ccccc2Sc2ccc(Cl)cc21 [CHLORPROMAZINE]
IC50: 4.3 µM
